Measured values published in paper PMC9058666 (RSC Advances, 2020).

Legend:
in vivo = settings: SD, rat, po, 50 mg/kg
[1] = SD, rat, in vivo, po

SMILES: O=c1[nH]cc(F)c(=O)[nH]1 [5-FU, 5-Fluorouracil]
- AUC(0-inf) (in vivo): 54600 ± 15000 ng·h/mL
- AUC(0-t) (in vivo): 50400 ± 10800 ng·h/mL
- Cmax (in vivo): 21000 ± 1980 ng/mL
- Tmax (in vivo): 40 ± 17.3 min
- half-life (in vivo): 88.4 ± 26.9 min
- Cmax of 5-FU (from Fig. 7, mean plasma concentration-time profile) [1]: 20 µg/mL
- time at which Cmax was reached (from Fig. 7) [1]: 0.5 h
